One assay relates to Clostridium ljungdahlii. Kind of assay: Syngas fermentation in stirred tank bioreactor, effect of vitamin feed rates on specific ethanol productivity. In kind it is cell-based. The settings on record: for effect of increasing feed rate on specific ethanol productivity: Experiment 4, vitamin B5 feed held constant below about 30 ug/g of cells, vitamin B1 and B7 feeds increased. The protocol:
A synthesis gas containing CO. CO2 and H2 was continuously introduced into a stirred tank bioreactor containing Clostridium ljungdahlii (Experiments 1-4), along with a liquid medium containing trace metals and salts as described herein. Vitamins were provided using dedicated feed lines. A New Brunswick Bioflow reactor containing the fermentation medium was started with actively growing Clostridium ljungdahlii (Experiments 1-4). The rate of agitation of the reactor was set to 800 rpm at the start of the experiment and this agitation rate was maintained throughout the experiment. Feed gas flow to the reactor was increased based on the H2 and CO uptake of the culture. Temperature in the bioreactor was maintained at about 38° C. throughout the experiment. Samples of gas feed into the bioreactor and off-gas from the bioreactor and fermentation broth in the bioreactor were taken at intervals, for example feed gas, off-gas and fermentation broth were sampled about daily, once two hours and once four hours respectively. Above samples were analyzed for consumption or production of various gas components, broth acetic acid concentration, broth ethanol concentration and the optical density (cell density) of the culture. The unaroused volume of the reactor was maintained between 3000 to 3250 ml throughout the experiment. Further, the gas flow to the reactor was maintained at required gas flow rates by using a mass flow controller. The feed […] composition was 23% H2, 35% CO, 29% CO2 and 13% N2. In the following reactor runs, vitamins biotin, thiamine and pantothenate were feed to the reactor using a dedicated stream. Steady state conditions were maintained for a period of time greater than 5 times the cell retention time. Cell mass was essentially replaced 5 times before data collection phase started. After data set was collected, vitamin feed rate was adjusted, adjustment phase was repeated, and next data set was collected. Adjustment phase refers to an amount of time necessary for the culture to equilibrate to a change. In this experiment culture was allowed at least a 3-day adjustment phase. A cell recycle system (CRS) was attached to the reactor before the start of the experiment. During the experiment, medium feed rate was 3.0 to 6.0 ml/min, and through the CRS, 0-5 ml/min permeate was drawn out from the reactor. The following tables describe the vitamin feed rates and specific ethanol productivity (SEP).

Assay [1] concerns Clostridium autoethanogenum. Kind of assay: Fermentation trials, effect of vitamin feed rates and low cell retention time on specific ethanol productivity. In kind it is cell-based. The protocol:
Fermentation trials were conducted with Clostridium autoethanogenum with Biotin (B7) and Thiamine (B1) feeds held at lower base levels with increasing Pantothenate (B5) Feeds.

Molecules are shown by their SMILES.

Regarding `O=C(O)CCCC[C@@H]1SC[C@@H]2NC(=O)N[C@@H]21` [Biotin, biotin], the “effect of increasing feed rate on specific ethanol productivity” value in the assay with Clostridium ljungdahlii is reported as “did not increase specific ethanol productivity”.
Turning to `Cc1ncc(C[n+]2csc(CCO)c2C)c(N)n1` [Thiamine, thiamine], the “effect of increasing feed rate on specific ethanol productivity” value in the assay with Clostridium ljungdahlii is on record as “did not increase specific ethanol productivity”.
In the case of `CC(C)(CO)[C@@H](O)C(=O)NCCC(=O)O` [Pantothenate, pantothenate], the “SEP (specific ethanol productivity)” value in assay [1] (feeds (μg/g cells produced): pantothenate 48.47, biotin 29.54, thiamine 23.10, cell retention time 13.45 hrs) stood at 8.08 g/day/g cells; in assay [1] (feeds (μg/g cells produced): pantothenate 58.08, biotin 26.65, thiamine 20.84, cell retention time 13.27 hrs) it was 8.24 g/day/g cells; in assay [1] (feeds (μg/g cells produced): pantothenate 62.90, biotin 23.04, thiamine 18.01, cell retention time 12.44 hrs) it was 8.51 g/day/g cells; in assay [1] (feeds (μg/g cells produced): pantothenate 68.78, biotin 25.19, thiamine 19.70, cell retention time 11.36 hrs) it was 9.39 g/day/g cells; in assay [1] (feeds (μg/g cells produced): pantothenate 70.67, biotin 21.62, thiamine 16.91, cell retention time 11.22 hrs) it was 9.70 g/day/g cells; in assay [1] (feeds (μg/g cells produced): pantothenate 81.90, biotin 18.79, thiamine 14.69, cell retention time 9.81 hrs), 9.98 g/day/g cells. In addition, the “SEP (specific ethanol productivity)” value amounted to 7.95 g/day/g cells in the assay on Clostridium ljungdahlii (Experiment 3, feeds (μg/g cells produced): pantothenate 19.33, biotin 17.76, thiamine 13.36); 8.64 g/day/g cells with Clostridium ljungdahlii (Experiment 3, feeds (μg/g cells produced): pantothenate 37.91, biotin 17.42, thiamine 13.10); 10.03 g/day/g cells in the assay with Clostridium ljungdahlii (Experiment 3, feeds (μg/g cells produced): pantothenate 55.49, biotin 17.00, thiamine 12.79); 10.33 g/day/g cells in the assay with Clostridium ljungdahlii (Experiment 3, feeds (μg/g cells produced): pantothenate 72.34, biotin 16.62, thiamine 12.50); 11.25 g/day/g cells with Clostridium ljungdahlii (Experiment 3, feeds (μg/g cells produced): pantothenate 108.13, biotin 19.87, thiamine 14.95); 11.15 g/day/g cells in the assay with Clostridium ljungdahlii (Experiment 3, feeds (μg/g cells produced): pantothenate 125.67, biotin 20.55, thiamine 14.76). Besides, the “specific ethanol productivity increase” value in assay [1] (vitamin B5 feed from about 48 to about 82 ug/g of cells produced, B1 and B7 under 30 then under 20 ug/g, cell retention time from about 13.5 to 9.8 hours) is “about 24%”; with Clostridium ljungdahlii (Experiment 3, vitamin B5 feed from about 20 to about 108 ug/g of cells produced, vitamin B1 and B7 feeds under 20 ug/g), “about 42%”.

The values above are taken from patent US20220177931A1, “PROCESS AND COMPOSITION FOR CONTROLLING ETHANOL PRODUCTION” (priority 2020, published 2022).
